Bridge positions count the residues as written; N and C are the ends. Square brackets hold non-standard residues; d marks the D form. Ends that are not written are not given here. Peptide text beside a SMILES is read from it. pGlu = O=C1CC[C@@H](C(=O)O)N1
Assays:
CG8784 = experiment: CHO cell aequorin luminescence assay, related GPCR; type: cell-based, Drosophila; conditions: 10µM peptide; CHO cells expressing CG8784 and aequorin
CG16752 = target: T1, CG16752 (Drosophila melanogaster, UniProt Q8SWR3); experiment: CHO cell aequorin luminescence (Ca2+) assay; type: cell-based; conditions: for Ca^2+ responses: 0.1µM or 10µM SP
T1 construct: The relevant GPCRs are expressed from constructs prepared by cloning the entire open reading frame in a pcDNA3.1(+) vector; expressed in transfected cells; host or cells: CHO-K1
T1 sequence (Q8SWR3 1-435): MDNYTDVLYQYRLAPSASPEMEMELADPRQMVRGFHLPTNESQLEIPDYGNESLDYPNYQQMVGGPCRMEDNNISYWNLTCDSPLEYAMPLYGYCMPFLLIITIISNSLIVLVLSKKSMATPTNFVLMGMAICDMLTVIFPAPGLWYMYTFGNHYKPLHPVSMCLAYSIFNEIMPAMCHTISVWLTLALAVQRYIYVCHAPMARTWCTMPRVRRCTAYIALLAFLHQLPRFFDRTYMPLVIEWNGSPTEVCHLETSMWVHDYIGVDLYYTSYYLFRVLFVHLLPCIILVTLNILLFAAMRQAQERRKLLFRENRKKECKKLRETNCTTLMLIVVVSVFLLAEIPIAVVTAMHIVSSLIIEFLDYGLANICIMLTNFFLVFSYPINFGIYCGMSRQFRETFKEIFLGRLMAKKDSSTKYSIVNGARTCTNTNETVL

A. aegypti SPR = experiment: CHO cell aequorin luminescence assay, insect SPR orthologue; type: cell-based, Aedes aegypti; conditions: CHO cells expressing SPR, aequorin and Gαqi
[1] = Saudan et al., 2002; cited from earlier work
D. pseudoobscura SPR = experiment: CHO cell aequorin luminescence assay, insect SPR orthologue; type: cell-based; conditions: CHO cells expressing SPR, aequorin and Gαqi
B. mori SPR = experiment: as above; type: cell-based, Bombyx mori; conditions: CHO cells expressing SPR, aequorin and Gαqi
CG2114 = target: T2, CG2114 (Drosophila melanogaster, UniProt Q9VZW5); experiment: CHO cell aequorin luminescence assay, related GPCR; type: cell-based; conditions: 10µM peptide; CHO cells expressing CG2114 and aequorin
T2 construct: The relevant GPCRs are expressed from constructs prepared by cloning the entire open reading frame in a pcDNA3.1(+) vector; expressed in transfected cells; host or cells: CHO-K1
T2 sequence (Q9VZW5 1-549): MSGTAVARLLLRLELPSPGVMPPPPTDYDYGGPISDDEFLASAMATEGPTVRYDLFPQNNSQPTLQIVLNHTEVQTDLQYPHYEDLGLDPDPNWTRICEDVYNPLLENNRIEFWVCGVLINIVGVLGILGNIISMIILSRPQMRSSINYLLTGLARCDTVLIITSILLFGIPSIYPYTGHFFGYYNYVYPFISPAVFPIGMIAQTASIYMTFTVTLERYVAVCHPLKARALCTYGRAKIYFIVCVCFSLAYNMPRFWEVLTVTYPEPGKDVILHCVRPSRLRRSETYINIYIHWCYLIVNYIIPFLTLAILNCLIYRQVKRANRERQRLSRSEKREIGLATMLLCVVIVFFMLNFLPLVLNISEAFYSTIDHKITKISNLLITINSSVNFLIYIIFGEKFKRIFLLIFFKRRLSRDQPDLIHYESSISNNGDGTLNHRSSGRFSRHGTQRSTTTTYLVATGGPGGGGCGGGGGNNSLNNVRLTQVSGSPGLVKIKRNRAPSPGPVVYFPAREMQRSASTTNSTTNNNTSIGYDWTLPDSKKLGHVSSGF

virgin females = experiment: Receptivity of virgin females after SP injection; type: in vivo, Drosophila; conditions: assayed 5 h after injection
Helicoverpa armigera = conditions: Fan et al., 1999 and 2000; cited from earlier work
SPR of Bombyx mori = target: T3, SPR of Bombyx mori (Bombyx mori); experiment: cell-based or functional assay
T3 chain: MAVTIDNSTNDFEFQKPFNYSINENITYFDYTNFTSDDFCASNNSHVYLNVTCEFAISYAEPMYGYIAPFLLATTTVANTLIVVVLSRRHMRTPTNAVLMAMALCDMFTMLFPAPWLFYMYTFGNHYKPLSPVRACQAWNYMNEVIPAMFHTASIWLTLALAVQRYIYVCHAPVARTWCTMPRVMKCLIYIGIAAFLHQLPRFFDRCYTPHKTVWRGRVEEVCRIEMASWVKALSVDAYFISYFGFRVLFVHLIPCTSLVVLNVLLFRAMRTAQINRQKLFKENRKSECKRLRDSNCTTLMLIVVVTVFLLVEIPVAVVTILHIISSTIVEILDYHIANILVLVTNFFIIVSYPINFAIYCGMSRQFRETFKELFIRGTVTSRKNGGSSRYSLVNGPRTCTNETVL

SPR of Aedes aegypti = target: T4, SPR of Aedes aegypti (Aedes aegypti); experiment: cell-based or functional assay
T4 chain: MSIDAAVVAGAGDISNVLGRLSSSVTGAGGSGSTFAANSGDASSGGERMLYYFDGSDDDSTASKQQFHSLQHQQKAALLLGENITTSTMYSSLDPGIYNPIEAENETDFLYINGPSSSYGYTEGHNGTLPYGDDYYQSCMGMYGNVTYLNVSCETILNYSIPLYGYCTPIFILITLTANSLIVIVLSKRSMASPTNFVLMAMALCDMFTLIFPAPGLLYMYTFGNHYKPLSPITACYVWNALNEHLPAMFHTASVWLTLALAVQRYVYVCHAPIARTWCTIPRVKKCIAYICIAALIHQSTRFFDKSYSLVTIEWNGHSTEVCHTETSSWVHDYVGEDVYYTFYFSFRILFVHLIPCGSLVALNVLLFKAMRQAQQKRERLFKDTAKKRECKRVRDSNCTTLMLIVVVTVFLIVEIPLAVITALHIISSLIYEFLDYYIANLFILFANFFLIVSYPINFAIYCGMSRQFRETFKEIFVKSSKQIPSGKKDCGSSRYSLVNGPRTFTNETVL

[2] = target: T5, Drosophila melanogaster sex peptide receptor (SPR), GPCR encoded by CG16752 (Drosophila melanogaster, UniProt Q8SWR3 1-435); experiment: cell-based or functional assay
T5 sequence: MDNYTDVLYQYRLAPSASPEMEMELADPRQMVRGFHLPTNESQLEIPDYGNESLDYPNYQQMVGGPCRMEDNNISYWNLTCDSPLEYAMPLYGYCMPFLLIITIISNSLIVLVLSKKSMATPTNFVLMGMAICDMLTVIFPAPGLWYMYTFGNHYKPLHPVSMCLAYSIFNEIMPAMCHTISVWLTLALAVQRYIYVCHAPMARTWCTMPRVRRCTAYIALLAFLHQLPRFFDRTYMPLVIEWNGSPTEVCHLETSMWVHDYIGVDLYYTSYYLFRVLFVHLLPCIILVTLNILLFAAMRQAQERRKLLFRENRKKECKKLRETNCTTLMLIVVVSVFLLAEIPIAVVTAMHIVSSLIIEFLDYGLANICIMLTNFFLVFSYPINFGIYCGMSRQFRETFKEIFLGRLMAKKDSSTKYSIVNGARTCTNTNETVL

[3] = target: T6, SPR of Drosophila pseudoobscura (Drosophila pseudoobscura); experiment: cell-based or functional assay
T6 chain: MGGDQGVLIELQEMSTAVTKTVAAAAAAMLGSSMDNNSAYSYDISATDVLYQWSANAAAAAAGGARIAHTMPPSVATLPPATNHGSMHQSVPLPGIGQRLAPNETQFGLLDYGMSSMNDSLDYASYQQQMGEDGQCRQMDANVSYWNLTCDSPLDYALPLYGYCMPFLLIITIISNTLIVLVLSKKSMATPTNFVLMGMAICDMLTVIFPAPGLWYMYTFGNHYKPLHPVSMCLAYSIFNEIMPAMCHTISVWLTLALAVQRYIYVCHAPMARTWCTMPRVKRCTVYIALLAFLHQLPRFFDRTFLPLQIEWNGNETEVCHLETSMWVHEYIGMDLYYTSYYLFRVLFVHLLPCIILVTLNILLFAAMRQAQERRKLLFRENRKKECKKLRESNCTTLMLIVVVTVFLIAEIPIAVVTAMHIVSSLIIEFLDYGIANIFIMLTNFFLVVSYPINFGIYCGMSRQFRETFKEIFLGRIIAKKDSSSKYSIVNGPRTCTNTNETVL

## pQLQSNGEPAYRVRTPRLa ([pGlu]LQSNGEPAYRVRTPRL-NH2; SMILES CC(C)C[C@H](NC(=O)[C@H](CCCNC(=N)N)NC(=O)[C@@H]1CCCN1C(=O)[C@@H](NC(=O)[C@H](CCCNC(=N)N)NC(=O)[C@@H](NC(=O)[C@H](CCCNC(=N)N)NC(=O)[C@H](Cc1ccc(O)cc1)NC(=O)[C@H](C)NC(=O)[C@@H]1CCCN1C(=O)[C@H](CCC(=O)O)NC(=O)CNC(=O)[C@H](CC(N)=O)NC(=O)[C@H](CO)NC(=O)[C@H](CCC(N)=O)NC(=O)[C@H](CC(C)C)NC(=O)[C@@H]1CCC(=O)N1)C(C)C)[C@@H](C)O)C(N)=O) [hugin-γ, ligand of CG8784]
CG8784
  sensitivity to peptide ligand: confer sensitivity
CG16752; 10µM peptide, co-transfected with Gαqi
  activation of receptor by peptide ligand: Neither of these peptides activates

## CC[C@H](C)[C@H](NC(=O)[C@H](Cc1c[nH]c2ccccc12)NC(=O)[C@H](CCC(=O)O)NC(=O)[C@@H](NC(=O)[C@H](CC(=O)O)NC(=O)[C@H](CC(N)=O)NC(=O)[C@H](CCCNC(=N)N)NC(=O)[C@H](CC(=O)O)NC(=O)[C@@H]1CCC(=O)N1)[C@@H](C)O)C(=O)N[C@@H](CCC(N)=O)C(=O)N[C@@H](CO)C(=O)N[C@@H](CCC(N)=O)C(=O)N[C@@H](CCCCN)C(=O)N[C@@H](CC(=O)O)C(=O)N[C@@H](CCCNC(=N)N)C(=O)N[C@@H](CCC(=O)O)C(=O)N[C@@H](CCCCN)C(=O)N[C@@H](Cc1c[nH]c2ccccc12)C(=O)N[C@H]1CSSC[C@@H](C(=O)O)NC(=O)[C@H](CCCNC(=N)N)NC(=O)CNC(=O)CNC(=O)[C@H](CC(C)C)NC(=O)[C@H](Cc2ccc(O)cc2)NC(=O)[C@@H]2CCCN2C(=O)CNC(=O)[C@H](CC(C)C)NC(=O)[C@H](CC(N)=O)NC(=O)[C@H](CC(C)C)NC(=O)[C@H](CCCNC(=N)N)NC1=O [DUP99B] ([pGlu]DRNDTEWIQSQKDREKWCRLNLGPYLGGRC-OH; disulfide 19-31)
A. aegypti SPR
  response of receptor to peptide: lower sensitivity
[1]
  post-mating responses: can induce the same post-mating responses as SP
D. pseudoobscura SPR
  response of receptor to peptide: lower sensitivity
B. mori SPR
  response of receptor to peptide: lower sensitivity

## CC[C@H](C)[C@H](NC(=O)[C@@H]1C[C@@H](O)CN1C(=O)[C@H](Cc1ccccc1)NC(=O)[C@H](CCCCN)NC(=O)[C@@H](NC(=O)[C@@H]1C[C@@H](O)CN1C(=O)[C@H](CCCCN)NC(=O)[C@H](CCCNC(=N)N)NC(=O)[C@H](CC(N)=O)NC(=O)[C@H](Cc1c[nH]c2ccccc12)NC(=O)[C@@H]1CCCN1C(=O)[C@H](Cc1c[nH]c2ccccc12)NC(=O)[C@H](CCC(=O)O)NC(=O)[C@@H](N)Cc1c[nH]c2ccccc12)[C@@H](C)O)C(=O)N1C[C@H](O)C[C@H]1C(=O)N[C@@H](CO)C(=O)N1C[C@H](O)C[C@H]1C(=O)N[C@@H](CC(N)=O)C(=O)N1C[C@H](O)C[C@H]1C(=O)N[C@@H](CCCNC(=N)N)C(=O)N[C@@H](CC(=O)O)C(=O)N[C@@H](CCCCN)C(=O)N[C@@H](Cc1c[nH]c2ccccc12)C(=O)N[C@H]1CSSC[C@@H](C(=O)O)NC(=O)[C@H](CCCNC(=N)N)NC(=O)CNC(=O)CNC(=O)[C@H](Cc2c[nH]c3ccccc23)NC(=O)[C@H](C)NC(=O)[C@@H]2CCCN2C(=O)CNC(=O)[C@H](CC(C)C)NC(=O)[C@H](CC(N)=O)NC(=O)[C@H](CC(C)C)NC(=O)[C@H](CCCNC(=N)N)NC1=O [SP]
A. aegypti SPR
  EC50: 167 nM
D. pseudoobscura SPR
  EC50: 4.3 nM
CG8784
  sensitivity to peptide ligand: not to SP
CG2114
  sensitivity to peptide ligand: not to SP
Virgin females; Df(1)Exel6234 homozygous virgins, 12pmol SP injected
  receptivity to naive males: remaine receptive
Virgin females; wild-type virgins, 12pmol SP injected into haemolymph
  receptivity to naive males: unreceptive
Helicoverpa armigera
  post-mating responses: can induce post-mating responses
CG16752; cotransfected chimeric G protein Gαqi
  Ca^2+ responses: robust Ca^2+ responses
CG16752; cotransfected chimeric G protein Gαqo
  Ca^2+ responses: robust Ca^2+ responses
CG16752; cotransfected chimeric G protein Gαqs
  Ca^2+ responses: not Gαqs
CG16752; no additional G protein (endogenous Gαq/11), concentrations as high as 10µM
  luminescence response: very weak response
B. mori SPR
  EC50: 63 nM

B1: synthetic sex peptide (SP) of Drosophila melanogaster (peptide)
peptide: WEWPWNRKPTKFPIPSPNPRDKWCRLNLGPAWGGRC
modifications: disulfide 24-36 (inferred); also: hydroxyproline at some P residues, places not given here
SPR of Bombyx mori
  EC50, dose-response of luminescence in CHO cells expressing the SPR, aequorin and Gαqi: 63 nM
SPR of Aedes aegypti
  EC50, dose-response of luminescence in CHO cells expressing the SPR, aequorin and Gαqi: 167 nM
[2]
  EC50, dose-response of luminescence in CHO cells expressing CG16752, aequorin and Gαqi: 1.3 nM
[3]
  EC50, dose-response of luminescence in CHO cells expressing the SPR, aequorin and Gαqi: 4.3 nM

## [pGlu]DRNDTEWIQSQKDREKWCRLNLGPYLGGRC (disulfide 19-31 (inferred)) [synthetic DUP99B]
[2]
  EC50, dose-response of luminescence in CHO cells expressing CG16752, aequorin and Gαqi: 7.3 nM
